Measurements taken from patent US20200385371A1 (Propellon Therapeutics Inc., priority 2017, published 2020).
Like-named read-outs stand apart in the source and are kept apart here.

Experiments:
[1] = biological target: T1, WDR5 (Homo sapiens, UniProt P61964); assay: Surface Plasmon Resonance (SPR) assay; assay type: binding; parameters: Full length WDR5 with an N-terminal His tag and C-terminal AviTag; His tag (N); made in house; host or cells: E. coli
Experimental: Exemplary compounds of the application were dissolved in 100% DMSO at 10 mM, assayed fresh, and then stored at −20° C. for repeat studies and other experiments. Full length WDR5 with an N-terminal His tag and C-terminal AviTag (Avidity Inc.) was expressed in E. coli with coexpression of BirA to biotin label the protein in vivo. Purification was via Ni-NTA.
SPR studies were performed using a Biacore™ T200 instrument (GE Health Sciences Inc.). Biotinylated WDR5 protein (approximately 3000RU) was stably captured to streptavidin coupled SA chips according to the manufacture's protocol (GE Health Sciences Inc.). The running buffer used was HBS-EP (20 mM Hepes pH 7.4, 150 mM NaCl, 3 mM EDTA, 0.05% P-20) plus 5% DMSO with a flow rate of 40 μl/min. For SPR analysis, 5 different concentrations of each exemplary compound of the application were sprayed into 96 or 384 well plates using an HP D300 digital dispenser. The concentration ranged from about 195 nM to about 12 nM in a two-fold series. […] Curve fitting and KD calculations were performed with the Biacore T200 Evalutation software (GE Health Sciences Inc).

[2] = system: MV4-11 cells; assay: Cell proliferation assay (ATPlite); assay type: cell-based; conditions: Homo sapiens; for EC50: 120 h, MV4-11 cells, five days, read-out: GI MV411 EC50; for IC50: MV4-11, Table 2
Experimental: MV4-11 cells were seeded into a 96-well plate at 1,000 cells/well in 150 μl medium (Alpha-MEM containing 10% FBS, 100 μg/ml Normocin, and 50 μg/ml Gentamycin, Invitrogen). A HP D300 digital dispenser was used to dose cells with DMSO or test compounds across a 10-point range of concentrations (high dose of 10 μM), and cultures were grown in a humidified 5% CO2 incubator at 37° C. After five days, plates were removed from incubator and equilibrated to room temperature. An equal volume of ATPlite assay reagent was added to each well, and samples were processed according to manufacturer's instructions (Perkin Elmer). Luminescent signal was measured using an Envision plate reader equipped with a US-Luminescence detector.

[3] = biological target: T1, WDR5; assay: Fluorescence Polarization (FP) binding assay
Experimental: H3 (1-15) ([…]), and 9-Ala-FAM ((Ac)-[…]-(Ahx-Ahx)-K(5,6-FAM)) (where Ahx represents 6 amino hexanoic acid linkers) peptides for WDR5 were synthesized, N-terminal-labeled with isothiocyanate-fluorescein, and purified by Tufts University Core Services (Boston, Mass.). Compound binding assays were performed at a constant labeled peptide concentration of 30 or 20 nM for H3 (1-15) and 9-Ala-FAM respectively. WDR5 concentrations of 0.3 μM for H3 (1-15) and 0.05 μM for 9-Ala-FAM were used. For both the H3 (1-15) and 9-Ala-FAM peptides, 80 mM sodium phosphate buffer (pH 6.5), 20 mM KCl, and 0.008% Triton X-100 was used. For the H3 (1-15) peptide, FP assays were measured in 10 μl aliquots in 384-well Axygen plates using a Synergy 4 microplate reader (BioTek) with an excitation wavelength of 485 nm and emission wavelength of 528 nm. For the 9-Ala-FAM peptide, FP assays were measured in 125 μl aliquots in 96 well Microfluor plates using a ViewLux instrument (Perkin Elmer) with an excitation wavelength of 480 nm and emission wavelength of 540 nm. To determine Kdsp values, the data were fit to a hyperbolic function using Sigma Plot software (Systat Software). The Kdisp values represent the average of quadruplicate measurements.

Kd ([1]; read-out: SPR Kd)	EC50 [2]	IC50 [3]	IC50 [2]	Kd ([1]; Table 2, effect of difluoro substitution, read-out: KD (SPR))	SMILES
3.68 nM	30.1 nM	16.3 nM	–	–	C[C@@H]1CN(c2cc(F)c(-c3cnc(N4CCOCC4)nc3)c(F)c2NC(=O)c2c[nH]c(=O)cc2C(F)(F)F)C[C@H](C)N1C [Example 2, N-(2,4-difluoro-3-(2-morpholinopyrimidin-5-yl)-6-((3S,5R)-3,4,5-trimethylpiperazin-1-yl)phenyl)-6-oxo-4-(trifluoromethyl)-1,6-dihydropyridine-3-carboxamide]
0.82 nM	31 nM	21.3 nM	–	–	C[C@@H]1CN(c2ncc(-c3c(F)cc(N4C[C@@H](C)N(C)[C@@H](C)C4)c(NC(=O)c4c[nH]c(=O)cc4C(F)(F)F)c3F)cn2)C[C@H](C)O1 [Example 8, N-(3-(2-((2S,6R)-2,6-dimethylmorpholino)pyrimidin-5-yl)-2,4-difluoro-6-((3S,5R)-3,4,5-trimethylpiperazin-1-yl)phenyl)-6-oxo-4-(trifluoromethyl)-1,6-dihydropyridine-3-carboxamide]
1.33 nM	123 nM	15.3 nM	–	–	C[C@@H]1CN(c2cc(F)c(-c3ccc(N4CCOCC4)c(F)c3)c(F)c2NC(=O)c2c[nH]c(=O)cc2C(F)(F)F)C[C@H](C)N1C [Example 9, 6-Oxo-N-(2,3′,6-trifluoro-4′-morpholino-4-((3S,5R)-3,4,5-trimethylpiperazin-1-yl)-[1,1′-biphenyl]-3-yl)-4-(trifluoromethyl)-1,6-dihydropyridine-3-carboxamide]
0.33 nM	59.2 nM	10 nM	–	–	C[C@@H]1CN(c2cc(F)c(-c3cnc(N4CCOCC4)nc3)c(F)c2NC(=O)c2ccc(F)cc2C(F)(F)F)C[C@H](C)N1C [Example 10, N-(2,4-difluoro-3-(2-morpholinopyrimidin-5-yl)-6-((3S,5R)-3,4,5-trimethylpiperazin-1-yl)phenyl)-4-fluoro-2-(trifluoromethyl)benzamideformic acid]
1.91 nM	173 nM	14.4 nM	–	–	CC(C)OC(=O)N1CCC=C(c2c(F)cc(N3C[C@@H](C)N(C)[C@@H](C)C3)c(NC(=O)c3c[nH]c(=O)cc3C(F)(F)F)c2F)C1 [Example 13, Isopropyl 5-(2,6-difluoro-3-(6-oxo-4-(trifluoromethyl)-1,6-dihydropyridine-3-carboxamido)-4-((3S,5R)-3,4,5-trimethylpiperazin-1-yl)phenyl)-3,6-dihydropyridine-1(2H)-carboxylate]
2.06 nM	153 nM	14.1 nM	–	–	C[C@@H]1CN(c2cc(F)c(C3=CCCN(C(=O)OC4CC(F)(F)C4)C3)c(F)c2NC(=O)c2c[nH]c(=O)cc2C(F)(F)F)C[C@H](C)N1C [Example 20, 3,3-Difluorocyclobutyl 5-(2,6-difluoro-3-(6-oxo-4-(trifluoromethyl)-1,6-dihydropyridine-3-carboxamido)-4-((3S,5R)-3,4,5-trimethylpiperazin-1-yl)phenyl)-3,6-dihydropyridine-1(2H)-carboxylate]
1.74 nM	–	23 nM	–	–	C[C@@H]1CN(c2cc(F)c(C3=CCCN(C(=O)OC4(C)CCC4)C3)c(F)c2NC(=O)c2c[nH]c(=O)cc2C(F)F)C[C@H](C)N1C [Example 22, 1-Methylcyclobutyl 5-(3-(4-(difluoromethyl)-6-oxo-1,6-dihydropyridine-3-carboxamido)-2,6-difluoro-4-((3S,5R)-3,4,5-trimethylpiperazin-1-yl)phenyl)-3,6-dihydropyridine-1(2H)-carboxylate]
2.83 nM	–	31.4 nM	–	–	CC(C)OC(=O)N1CCC=C(c2c(F)cc(N3C[C@@H](C)N(C)[C@@H](C)C3)c(NC(=O)c3c[nH]c(=O)cc3C(F)F)c2F)C1 [Example 23, Isopropyl 5-(3-(4-(difluoromethyl)-6-oxo-1,6-dihydropyridine-3-carboxamido)-2,6-difluoro-4-((3S,5R)-3,4,5-trimethylpiperazin-1-yl)phenyl)-3,6-dihydropyridine-1(2H)-carboxylate]
3 nM	101 nM	24.9 nM	–	–	CNC(=O)c1ccc(-c2c(F)cc(N3C[C@@H](C)N(C)[C@@H](C)C3)c(NC(=O)c3c[nH]c(=O)cc3C(F)(F)F)c2F)cc1F [Example 24, 6-Oxo-N-(2,3′,6-trifluoro-4′-(methylcarbamoyl)-4-((3S,5R)-3,4,5-trimethylpiperazin-1-yl)-[1,1′-biphenyl]-3-yl)-4-(trifluoromethyl)-1,6-dihydropyridine-3-carboxamide]
2.05 nM	148 nM	19.5 nM	–	–	C[C@@H]1CN(c2cc(F)c(-c3ccc(C(N)=O)c(F)c3)c(F)c2NC(=O)c2c[nH]c(=O)cc2C(F)(F)F)C[C@H](C)N1C [Example 25, N-(4′-carbamoyl-2,3′,6-trifluoro-4-((3S,5R)-3,4,5-trimethylpiperazin-1-yl)-[1,1′-biphenyl]-3-yl)-6-oxo-4-(trifluoromethyl)-1,6-dihydropyridine-3-carboxamide]
4.49 nM	316 nM	22.2 nM	–	–	C[C@@H]1CN(c2cc(F)c(-c3ccc(C(N)=O)c(F)c3F)c(F)c2NC(=O)c2c[nH]c(=O)cc2C(F)(F)F)C[C@H](C)N1C [Example 26, N-(4′-carbamoyl-2,2′,3′,6-tetrafluoro-4-((3S,5R)-3,4,5-trimethylpiperazin-1-yl)-[1,1′-biphenyl]-3-yl)-6-oxo-4-(trifluoromethyl)-1,6-dihydropyridine-3-carboxamide]
1.13 nM	221 nM	34.8 nM	–	–	C[C@@H]1CN(c2cc(F)c(-c3ccc(C(=O)NC(C)(C)CC(C)(C)C)c(F)c3F)c(F)c2NC(=O)c2c[nH]c(=O)cc2C(F)(F)F)C[C@H](C)N1C [Example 27, 6-Oxo-N-(2,2′,3′,6-tetrafluoro-4′-((2,4,4-trimethylpentan-2-yl)carbamoyl)-4-((3S,5R)-3,4,5-trimethylpiperazin-1-yl)-[,1′-biphenyl]-3-yl)-4-(trifluoromethyl)-1,6-dihydropyridine-3-carboxamide]
5.01 nM	2870 nM	36.2 nM	–	–	C[C@@H]1CN(c2cc(F)c(-c3ccc(F)c(C(N)=O)c3)c(F)c2NC(=O)c2c[nH]c(=O)cc2C(F)(F)F)C[C@H](C)N1C [Example 28, N-(3′-carbamoyl-2,4′,6-trifluoro-4-((3S,5R)-3,4,5-trimethylpiperazin-1-yl)-[1,1′-biphenyl]-3-yl)-6-oxo-4-(trifluoromethyl)-1,6-dihydropyridine-3-carboxamide]
3.9 nM	1110 nM	22.4 nM	–	–	CNC(=O)c1cc(-c2c(F)cc(N3C[C@@H](C)N(C)[C@@H](C)C3)c(NC(=O)c3c[nH]c(=O)cc3C(F)(F)F)c2F)ccc1F [Example 29, 6-Oxo-N-(2,4′,6-trifluoro-3′-(methylcarbamoyl)-4-((3S,5R)-3,4,5-trimethylpiperazin-1-yl)-[1,1′-biphenyl]-3-yl)-4-(trifluoromethyl)-1,6-dihydropyridine-3-carboxamide]
–	–	–	25 nM	–	C[C@@H]1CN(c2cc(F)c(-c3cnc(N4CCOCC4)nc3)cc2NC(=O)c2c[nH]c(=O)cc2C(F)(F)F)C[C@H](C)N1C [reference compound]
–	–	–	3540 nM	77 nM	C[C@@H]1CN(c2c(F)cc(-c3cnc(N4CCOCC4)nc3)cc2NC(=O)c2c[nH]c(=O)cc2C(F)(F)F)C[C@H](C)N1C [reference compound]
